From ChEMBL document CHEMBL6109068, “Design, synthesis, and biological evaluation of 5'-deoxy (N)-methanocarbanucleoside derivatives as A3 adenosine receptor ligands” (Bioorg Med Chem Lett, 2025) come the findings set out here.

In general, inhibition refers to how much of the control response was suppressed. The Ki is the equilibrium dissociation constant of an inhibitor or competing ligand from its target. Read a low Ki as tighter binding.

The target in test [1] is T1, Adenosine receptor A3 (Homo sapiens) (UniProt P0DMS8).
T1 sequence (whole entry): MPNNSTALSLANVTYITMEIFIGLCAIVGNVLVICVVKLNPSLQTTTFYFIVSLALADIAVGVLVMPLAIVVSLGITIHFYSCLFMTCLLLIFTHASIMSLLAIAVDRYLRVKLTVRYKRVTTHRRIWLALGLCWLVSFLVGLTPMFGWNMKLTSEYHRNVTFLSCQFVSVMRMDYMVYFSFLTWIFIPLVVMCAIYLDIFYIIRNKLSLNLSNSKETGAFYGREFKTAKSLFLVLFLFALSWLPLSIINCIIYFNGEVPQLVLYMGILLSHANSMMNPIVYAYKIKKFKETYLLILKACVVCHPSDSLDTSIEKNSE
Nature of the test: Displacement of [3H]-NECA from human A3AR stably expressed in HeLa cell membrane at 10 uM relative to control. Format: cell membranes. (In a radioligand displacement assay an active substance lowers the binding of a labelled ligand.)

The next test concerns the target T2, Adenosine receptor A3 (Homo sapiens, UniProt P0DMS8).
T2 sequence (P0DMS8 whole entry): T1 sequence (whole entry)
Nature of the test: Displacement of [3H]-NECA from human A3AR stably expressed in HeLa cell membrane. Format: cell membranes.

`C[C@]12C[C@@H]1[C@@H](n1cnc3c(N)nc(Cl)nc31)[C@H](O)[C@@H]2O`: the inhibition in test [1] turned out to be 89%.
The compound `C[C@]12C[C@@H]1[C@@H](n1cnc3c(NCc4cccc(Cl)c4)ncnc31)[C@H](O)[C@@H]2O` displayed a Ki on Adenosine receptor A3 of 70.3 nM.
`C[C@]12C[C@@H]1[C@@H](n1cnc3c(NCc4cccc(F)c4)nc(Cl)nc31)[C@H](O)[C@@H]2O` returned a Ki at Adenosine receptor A3 of 124 nM.
